System: adjuvant-associated biological themes in LV, SP, LN
Excerpt: A defined sets of genes were selected according to specified criteria (e.g., FC, PA-call, threshold values). Their functional enrichment values were then obtained from TargetMine (Chen, Y. A., Tripathi, L. P. & Mizuguchi, K. PloS one 6, e17844 (2011)) (http://targetmine.mizuguchilab.org/) using the API interface. The following resources were used throughout the analysis via TargetMine Interface (GO, GOSlim, Integrated Pathway, KEGG, Reactome, and the NCI pathway). The Holm-Bonferroni method was used for multiple testing corrections.
Whole organ transcriptome data for each organ from each mouse were analyzed as follows to obtain biological themes for individual samples from each adjuvant-administered group of three mice. […] A set of Pj genes was first defined, where eij/ei(c)>2.0. Biological themes enriched within Pj were then identified using TargetMine (Chen, Y. A. et al., PloS one 6, e17844 (2011)) (http://targetmine.mizuguchilab.org/). Tj denote the resulting list of biological themes, with associated p-values from Fischer's exact test.
Next, the biological themes called by all the individual samples in the group were scored as follows. Having obtained three lists (T1, T2 and T3) for a given experimental condition, a consensus list T of themes was created as T={(t1, p1), (t2, p2), . . . }, where ti is a biological theme that appears in all of T1, T2 and T3, and pi is the smallest of the associated p-values. Only the themes with the p-value of <0.05 were included in T.
To summarize the biological themes in T further, a list of terms considered to be associated with adjuvant activity in general was separately prepared. AT={at1, at2, . . . }, where ati is a pre-selected adjuvant-associated term (e.g., “stress” or “cytokine”). Finally, an enrichment score S for an adjuvant-associated term ati was defined as: S(ati)=Σ−log(pj), where the name of tj in T includes a term ati as a substring and pj is the associated p-value.
This scoring scheme summarizes the relative enrichment of pre-selected adjuvant-associated terms in genes responding to each adjuvant in each organ.

CC(O)COC[C@H]1O[C@@H]2O[C@H]3[C@H](O)[C@@H](O)[C@@H](O[C@H]4[C@H](O)[C@@H](O)[C@@H](O[C@H]5[C@H](O)[C@@H](O)[C@@H](O[C@H]6[C@H](O)[C@@H](O)[C@@H](O[C@H]7[C@H](O)[C@@H](O)[C@@H](O[C@H]8[C@H](O)[C@@H](O)[C@@H](O[C@H]1[C@H](O)[C@H]2O)O[C@@H]8COCC(C)O)O[C@@H]7COCC(C)O)O[C@@H]6COCC(C)O)O[C@@H]5COCC(C)O)O[C@@H]4COCC(C)O)O[C@@H]3COCC(C)O (stereo partly drawn) [bCD, Hydroxypropyl-beta-cyclodextrin]
6.31: GO annotation: regulation of response to wounding (Term: wounding) (LV, ID)
6.86: GO annotation: NF-kappa B signaling pathway (Term: NF-kappa B signaling pathway) (LV, ID)
8.51: GO annotation: defense response (Term: defense response) (LV, ID)
4.21: GO annotation: I-kappaB kinase/NF-kappaB signaling (Term: NF-kappa B signaling pathway) (LV, ID)
7.77: GO annotation: response to cytokine (Term: cytokine) (LV, ID)
4.24: GO annotation: Cytokine-cytokine receptor interaction (Term: cytokine) (LV, ID)
7.76: GO annotation: Cytokine-cytokine receptor interaction|Endocytosis (Term: cytokine) (LV, ID)
0: GO annotation: activation of immune response (Term: immune response) (LV, ID) | GO annotation: activation of innate immune response (Term: innate immune response) (LV, ID) | GO annotation: acute inflammatory response (Term: inflammatory response) (LV, ID) | GO annotation: adaptive immune response (Term: adaptive immune response) (LV, ID) | GO annotation: apoptotic process (Term: apoptosis) (LV, ID) | GO annotation: apoptotic signaling pathway (Term: apoptosis) (LV, ID) | GO annotation: cell migration (Term: migration) (LV, ID) | GO annotation: cellular response to cytokine stimulus (Term: cytokine) (LV, ID) | GO annotation: cellular response to interferon-alpha (Term: IFN alpha) (LV, ID) | GO annotation: cellular response to stress (Term: stress) (LV, ID) | GO annotation: chemokine production (Term: chemokine) (LV, ID) | GO annotation: chemokine-mediated signaling pathway (Term: chemokine) (LV, ID) | GO annotation: chemotaxis (Term: chemotaxis) (LV, ID) | GO annotation: cytokine biosynthetic process (Term: cytokine) (LV, ID) | GO annotation: cytokine metabolic process (Term: cytokine) (LV, ID) | GO annotation: cytokine secretion (Term: cytokine) (LV, ID) | GO annotation: cytokine-mediated signaling pathway (Term: cytokine) (LV, ID) | GO annotation: death (Term: cell death) (LV, ID) | GO annotation: defense response to Gram-positive bacterium (Term: defense response) (LV, ID) | GO annotation: defense response to bacterium (Term: defense response) (LV, ID) | GO annotation: defense response to other organism (Term: defense response) (LV, ID) | GO annotation: defense response to protozoan (Term: defense response) (LV, ID) | GO annotation: defense response to virus (Term: defense response) (LV, ID) | GO annotation: granulocyte chemotaxis (Term: chemotaxis) (LV, ID) | GO annotation: granulocyte migration (Term: migration) (LV, ID) | GO annotation: immune response (Term: immune response) (LV, ID) | GO annotation: immune response-activating signal transduction (Term: immune response) (LV, ID) | GO annotation: immune response-regulating signaling pathway (Term: immune response) (LV, ID) | GO annotation: innate immune response (Term: innate immune response) (LV, ID) | GO annotation: innate immune response-activating signal transduction (Term: innate immune response) (LV, ID) | GO annotation: interferon-alpha production (Term: IFN alpha) (LV, ID) | GO annotation: intrinsic apoptotic signaling pathway (Term: apoptosis) (LV, ID) | GO annotation: leukocyte chemotaxis (Term: chemotaxis) (LV, ID) | GO annotation: leukocyte migration (Term: migration) (LV, ID) | GO annotation: leukocyte migration involved in inflammatory response (Term: inflammatory response) (LV, ID) | GO annotation: lymphocyte chemotaxis (Term: chemotaxis) (LV, ID) | GO annotation: lymphocyte migration (Term: migration) (LV, ID) | GO annotation: myeloid leukocyte migration (Term: migration) (LV, ID) | GO annotation: negative regulation of apoptotic process (Term: apoptosis) (LV, ID) | GO annotation: negative regulation of cell death (Term: cell death) (LV, ID) | GO annotation: negative regulation of cytokine production (Term: cytokine) (LV, ID) | GO annotation: negative regulation of defense response (Term: defense response) (LV, ID) | GO annotation: negative regulation of immune response (Term: immune response) (LV, ID) | GO annotation: negative regulation of innate immune response (Term: innate immune response) (LV, ID) | GO annotation: negative regulation of programmed cell death (Term: cell death) (LV, ID) | GO annotation: neutrophil chemotaxis (Term: chemotaxis) (LV, ID) | GO annotation: neutrophil migration (Term: migration) (LV, ID) | GO annotation: positive regulation of I-kappaB kinase/NF-kappaB signaling (Term: NF-kappa B signaling pathway) (LV, ID) | GO annotation: positive regulation of adaptive immune response (Term: adaptive immune response) (LV, ID) | GO annotation: positive regulation of apoptotic process (Term: apoptosis) (LV, ID) | GO annotation: positive regulation of cell death (Term: cell death) (LV, ID) | GO annotation: positive regulation of cell migration (Term: migration) (LV, ID) | GO annotation: positive regulation of chemokine production (Term: chemokine) (LV, ID) | GO annotation: positive regulation of chemotaxis (Term: chemotaxis) (LV, ID) | GO annotation: positive regulation of cytokine biosynthetic process (Term: cytokine) (LV, ID) | GO annotation: positive regulation of cytokine production (Term: cytokine) (LV, ID) | GO annotation: positive regulation of defense response (Term: defense response) (LV, ID) | GO annotation: positive regulation of immune response (Term: immune response) (LV, ID) | GO annotation: positive regulation of inflammatory response (Term: inflammatory response) (LV, ID) | GO annotation: positive regulation of innate immune response (Term: innate immune response) (LV, ID) | GO annotation: positive regulation of interferon-alpha production (Term: IFN alpha) (LV, ID) | GO annotation: positive regulation of leukocyte chemotaxis (Term: chemotaxis) (LV, ID) | GO annotation: positive regulation of leukocyte migration (Term: migration) (LV, ID) | GO annotation: positive regulation of programmed cell death (Term: cell death) (LV, ID) | GO annotation: positive regulation of response to wounding (Term: wounding) (LV, ID) | GO annotation: positive regulation of tumor necrosis factor superfamily cytokine (Term: cytokine) (LV, ID) | GO annotation: production of molecular mediator of immune response (Term: immune response) (LV, ID) | GO annotation: programmed cell death (Term: cell death) (LV, ID) | GO annotation: regulation of I-kappaB kinase/NF-kappaB signaling (Term: NF-kappa B signaling pathway) (LV, ID) | GO annotation: regulation of adaptive immune response (Term: adaptive immune response) (LV, ID) | GO annotation: regulation of apoptotic process (Term: apoptosis) (LV, ID) | GO annotation: regulation of apoptotic signaling pathway (Term: apoptosis) (LV, ID) | GO annotation: regulation of cell death (Term: cell death) (LV, ID) | GO annotation: regulation of cell migration (Term: migration) (LV, ID) | GO annotation: regulation of chemokine production (Term: chemokine) (LV, ID) | GO annotation: regulation of chemotaxis (Term: chemotaxis) (LV, ID) | GO annotation: regulation of cytokine biosynthetic process (Term: cytokine) (LV, ID) | GO annotation: regulation of defense response to virus (Term: defense response) (LV, ID) | GO annotation: regulation of defense response to virus by host (Term: defense response) (LV, ID) | GO annotation: regulation of immune response (Term: immune response) (LV, ID) | GO annotation: regulation of innate immune response (Term: innate immune response) (LV, ID) | GO annotation: regulation of interferon-alpha production (Term: IFN alpha) (LV, ID) | GO annotation: regulation of intrinsic apoptotic signaling pathway (Term: apoptosis) (LV, ID) | GO annotation: regulation of leukocyte chemotaxis (Term: chemotaxis) (LV, ID) | GO annotation: regulation of leukocyte migration (Term: migration) (LV, ID) | GO annotation: regulation of programmed cell death (Term: cell death) (LV, ID) | GO annotation: regulation of response to stress (Term: stress) (LV, ID) | GO annotation: regulation of tumor necrosis factor superfamily cytokine production (Term: cytokine) (LV, ID) | GO annotation: response to interferon-alpha (Term: IFN alpha) (LV, ID) | GO annotation: taxis (Term: chemotaxis) (LV, ID) | GO annotation: tumor necrosis factor superfamily cytokine production (Term: cytokine) (LV, ID) | IFN beta: cellular response to interferon-beta (LV, ID) | IFN beta: interferon-beta production (LV, ID) | IFN beta: positive regulation of interferon-beta production (LV, ID) | IFN beta: regulation of interferon-beta production (LV, ID) | IFN beta: response to interferon-beta (LV, ID) | IFN gamma: cellular response to interferon-gamma (LV, ID) | IFN gamma: interferon-gamma production (LV, ID) | IFN gamma: regulation of interferon-gamma production (LV, ID) | IFN gamma: response to interferon-gamma (LV, ID) | interleukin-6: interleukin-6 production (LV, ID) | interleukin-6: positive regulation of interleukin-6 production (LV, ID) | interleukin-6: regulation of interleukin-6 production (LV, ID) | interleukin-12: interleukin-12 production (LV, ID) | interleukin-12: positive regulation of interleukin-12 production (LV, ID) | interleukin-12: regulation of interleukin-12 production (LV, ID) | GO annotation: adaptive immune response based on somatic recombination of immune receptors built from immunoglobulin superfamily domains (Term: adaptive immune response) (mouse, in vivo) | GO annotation: regulation of adaptive immune response based on somatic recombination of immune receptors built from immunoglobulin superfamily domains (Term: adaptive immune response) (mouse, in vivo)
10.6: GO annotation: TNF signaling pathway (Term: TNF signaling pathway) (LV, ID)
10.9: GO annotation: inflammatory response (Term: inflammatory response) (LV, ID)
6.85: GO annotation: regulation of defense response (Term: defense response) (LV, ID)
4.06: GO annotation: regulation of cytokine production (Term: cytokine) (LV, ID)
10.4: GO annotation: response to stress (Term: stress) (LV, ID)
5.8: GO annotation: cell death (Term: cell death) (LV, ID)
5.85: GO annotation: response to wounding (Term: wounding) (LV, ID)
3.82: GO annotation: cytokine production (Term: cytokine) (LV, ID)
5.73: GO annotation: cell chemotaxis (Term: chemotaxis) (LV, ID)
7.33: GO annotation: regulation of inflammatory response (Term: inflammatory response) (LV, ID)

Reference: patent publication US20230021483A1, “[…] […] METHOD AND CLASSIFICATION OF PHARMACEUTICAL COMPONENTS BY USING TRANSCRIPTOMES” (National Institutes of Biomedical Innovation, Health and …, priority 2016, published 2023)
